A short description of test [1]: Fluorescence titration of sensor with epinephrine. Type of test: binding. The method, then: Fluorescence spectra were recorded on a Shimadzu RF-5301 PC spectrofluorometer at 37° C. A 1 mg/mL stock solution of I-2 in DMSO was prepared. A stock solution of I-2 in buffer (1×10^−5 M, 25 mM HEPES, 50 mM Na2S2O3, pH=5.0) was prepared. Norepinephrine, dopamine, epinephrine, and glutamate stock solutions were prepared by separately dissolving the analytes at the concentration to be used in the titration with the buffered stock solution of I-2 (thus avoiding dilution of I-2 during the experiment). I-2 was titrated with aliquots of analyte solution. The sensor was excited at 488 nm with slit widths of 5 nm.
Fluorescence spectra were recorded on a Shimadzu RF-5301 PC spectrofluorometer at 37° C. A separate 1 mg/mL stock solution of each coumarin-3-aldehyde derivative in DMSO was prepared. An aqueous stock solution of each derivative (10 μM) in buffer (25 mM HEPES, 50 mM Na2S2O3, pH=5.0) was prepared. Norepinephrine, dopamine, glutamate, and epinephrine stock solutions were prepared by separately dissolving the solid analytes at the concentration to be used in the titration with the buffered stock solutions described above and thus, avoiding dilution of the sensor during the experiment. The benzene-based NS521 derivatives were excited at 488 nm. The thiophene-based derivatives were excited at 515 nm.

A short description of test [2]: Fluorescence titration of sensor with glycine. Type of test: binding. The settings on record: amine guest glycine.
Test [3] concerns norepinephrine-enriched chromaffin cells. Briefly: Live-cell confocal imaging with Compound I-2, norepinephrine-enriched cells. The class given is cell-based, bovine. The settings on record: 0.1 μM. The method, then:
Chromaffin cells were separated into norepinephrine-enriched and epinephrine-enriched fractions by centrifugation on a Percoll gradient. Both populations were independently incubated with a 0.1 μM solution of Compound I-2 at 37° C. for 30 minutes and then washed to remove excess sensor and plated.
Chromaffin cells were isolated from bovine adrenal glands as previously described. Following centrifugation at 18° C. at 13,000 rpm for 45 minutes in the Percoll gradient, chromaffin cells separate into fractions enriched with either epinephrine-enriched cells (denser band) and norepinephrine-enriched cells (lighter band). Moro, M. A.; Lépez, M. G.; Gandía, L.; Michelena, P.; Garcia, G. Separation and culture of living adrenaline- and noradrenaline-containing cells from bovine adrenal medullae. Anal. Biochem. 1990, 185, 243-248. Over 90% of the catecholamine content found in the cells in the denser fraction are epinephrine, whereas approximately 67% of the catecholamine content in the lighter fraction are norepinephrine. Liu, X.; Barizuddin, S.; Shin, W.; Mathai, C. J.; Gangopadhyay, S.; Gillis, K. D. Microwell device for targeting single cells to electrochemical microelectrodes for high-throughput amperometric detection of quantal exocytosis. Anal. Chem. 2011, 83, 2445-2451. The two cell fractions were collected from the Percoll gradient with careful pipetting and separately cultured. […]

The subject of test [4] is EP-enriched chromaffin cells. Briefly: Fixed-cell staining with I-2 and anti-PNMT antibody, EP-enriched cells. Type of test: cell-based, bovine. The settings on record: 585 nm = anti-PNMT/Cy3, 525 nm = I-2 (1 μM), ImageJ. The source says:
To further validate the selectivity of the inventive sensor, the inventive detection method is validated with an established procedure in which phenylethanolamine N-methyltransferase (PNMT) is stained with an antibody and visualized with a Cy3-conjugated secondary antibody. It has been shown that epinephrine-enriched cell populations gave the highest level of PNMT staining, while norepinephrine-enriched populations gave lower staining (ca. 20% of that with epinephrine-enriched cells). For this experiment, three populations of chromaffin cells (norepinephrine-enriched, epin ephrine-enriched, and mixed) were stained with Compound I-2 and fixed in 4% paraformaldehyde. The fixed cells were stained with the anti-PNMT and secondary antibodies.
Chromaffin cells were isolated from bovine adrenal glands as previously described. […]
NE-enriched cells, EP-enriched cells and mixed cells stained with I-2 (1 μM) and plated on 0.0025% Poly (1-lysine) coated cover slips, after three washed with pre-warmed phosphate-buffered saline (pH=7.4, PBS), were fixed in 4% paraformaldehyde (Sigma, St. Louis, Mo., USA) in PBS for 60 min at room temperature (RT), followed by 6 min in methanol chilled to −20° C. […] After three washed in PBS, bound antibody was detected using Cy™3-conjugated AffiniPure Donkey Anti-Rabbit (1:150 dilution, Jackson ImmunoResearch Laboratories, Inc, Nest Grove, Pa., 19390). […]

Test [5] in a line: Binding affinity toward free primary amines.

Structures are written as SMILES.

Turning to `CCN(CC)c1ccc2c(-c3ccc(OC)cc3)c(C=O)c(=O)oc2c1` [Compound I-2, 7-diethylamino-3-formyl-4-(4′-methoxyphenyl)coumarin], the Ka in test [1] (amine guest epinephrine, fluorescence spectroscopy, λex = 488 nm, λem = 521 nm, pH 5.0, 37° C.) came out at 0 M⁻¹; in test [2] (fluorescence spectroscopy, λex = 488 nm, λem = 521 nm) it was 8 M⁻¹. For the same compound, the “interaction with secondary amines such as epinephrine” value in test [1] (in words) was “does not interact”. The “Isat/Io (λex = 488 nm)” value in test [2] (intensity at saturation from fit to binding isotherm) was 11.1. Moreover, the “cell fluorescence, confocal microscopy” value is listed as “strong, punctate fluorescence” in test [3] (37° C., 30 minutes, 488 nm excitation (bound sensor)) and “No significant fluorescence” in test [3] (excited at 440 nm (unbound sensor)). For the same compound, in test [4], the “average fluorescence intensity at 585 nm vs. 525, epinephrine-enriched relative to norepinephrine-enriched cells” value is 6 times. Also, the “binding affinities toward free primary amines” value in test [5] was around 10 M⁻¹.

For the origin of these results see patent publication US10330673B2, “Fluorescent chemical sensor for biological amines” (The Curators of the University of Missouri, priority 2013, dated 2019).
